# Assay results published in PubChem BioAssay (NCI).
#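 Five concentrations, 48 hours, 96-well plates. Abbreviation: GI50, concentration required for 50% inhibition of growth. The concentration for full growth arrest is given as TGI.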
# Legend:
# Assay in all cases: inhibition of tumour cell growth, NCI panel, 48 h
# CCRF-CEM leukemia = test system: CCRF-CEM leukemia
# HCC-2998 colon = test system: HCC-2998 colon
# HCT-15 colon = test system: HCT-15 colon
# HOP-62 NSCLC = test system: HOP-62 NSCLC
# MALME-3M melanoma = test system: MALME-3M melanoma
# RPMI-8226 leukemia = test system: RPMI-8226 leukemia
# UO-31 renal = test system: UO-31 renal
# HL-60(TB) leukemia = test system: HL-60(TB) leukemia
# MDA-MB-231 breast = test system: MDA-MB-231 breast
# MOLT-4 leukemia = test system: MOLT-4 leukemia
Compound,TGI (CCRF-CEM leukemia),TGI (HCC-2998 colon),TGI (HCT-15 colon),TGI (HOP-62 NSCLC),TGI (MALME-3M melanoma),TGI (RPMI-8226 leukemia),TGI (UO-31 renal),GI50 (CCRF-CEM leukemia),GI50 (HCC-2998 colon),GI50 (HCT-15 colon),GI50 (HL-60(TB) leukemia),TGI (HL-60(TB) leukemia),GI50 (HOP-62 NSCLC),GI50 (MDA-MB-231 breast),TGI (MDA-MB-231 breast),GI50 (MOLT-4 leukemia),TGI (MOLT-4 leukemia),GI50 (RPMI-8226 leukemia),GI50 (UO-31 renal)
S=c1[nH]c2ccc(Br)cc2c(=S)n1-c1ccccc1,> 100 µM,40.8 µM,63.2 µM,47 µM,32.1 µM,56.7 µM,59 µM,,,,,,,,,,,,
C=C1CC[C@@H]2[C@](C)(COC(C)=O)[C@H](OC(C)=O)CC[C@@]2(C)[C@@H]1CC(Nc1ccc(S(=O)(=O)Nc2nccc(C)n2)cc1)C1=CCOC1=O (stereo partly specified),3.09 µM,17.9 µM,4.24 µM,22.5 µM,,6.84 µM,10.6 µM,0.073 µM,4.98 µM,1.79 µM,2.1 µM,5.63 µM,10.3 µM,3.62 µM,10.2 µM,3.22 µM,17.9 µM,1.95 µM,2.91 µM
CCOC(=O)C(=O)Nc1c(C)cccc1C,,> 100 µM,> 100 µM,> 100 µM,> 100 µM,> 100 µM,> 100 µM,,,,,,,,,,,,
N#CC(C(=O)C(=O)NCCCNC(=O)C(=O)C(C#N)c1ccccc1)c1ccccc1 (stereo unspecified),> 100 µM,> 100 µM,> 100 µM,> 100 µM,> 100 µM,> 100 µM,> 100 µM,,,,,> 100 µM,,,,,> 100 µM,,
Cc1ccc(NC(=O)/C(=N\Nc2ccc([N+](=O)[O-])cc2[N+](=O)[O-])C2C(=O)NC(=O)NC2=O)cc1,> 100 µM,,> 100 µM,> 100 µM,> 100 µM,> 100 µM,> 100 µM,,,,,> 100 µM,,,,,,,
CC1S(=O)(=O)OCCOS1(=O)=O,> 100 µM,> 100 µM,> 100 µM,> 100 µM,> 100 µM,> 100 µM,> 100 µM,,,,,87.1 µM,,,,,> 100 µM,,
OCCCCCCOc1ccc(-c2cc(-c3ccccn3)nc(-c3ccccn3)c2)cc1,1.08 µM,16.3 µM,> 33.1 µM,1.66 µM,9.38 µM,1.88 µM,2.45 µM,,,,,0.514 µM,,,,,2.53 µM,,
O=NNc1nc(-c2cccnc2)nc2ccccc12,> 100 µM,> 100 µM,> 100 µM,> 100 µM,,,32.8 µM,,,,,> 100 µM,,,> 100 µM,,> 100 µM,,
COc1nc2nccc-2c2occn12,,> 100 µM,> 100 µM,> 100 µM,> 100 µM,> 100 µM,> 100 µM,,,,,,,,,,> 100 µM,,
Cc1cc(=O)oc2cc3c(cc12)Oc1ccccc1O3,> 10 µM,> 10 µM,> 100 µM,> 100 µM,> 100 µM,> 100 µM,> 100 µM,,,,,> 10 µM,,,,,> 100 µM,,
O=C(O)c1cc(=O)c2[nH]c3ccccc3c2s1,> 100 µM,> 100 µM,> 100 µM,> 100 µM,> 100 µM,> 100 µM,> 100 µM,,,,,> 100 µM,,,,,> 100 µM,,
Cn1nc(-c2ccccc2)c(C(=O)/C=C/c2ccccc2)c(N2CCOCC2)c1=O,57.2 µM,,57 µM,> 100 µM,,59.1 µM,28.1 µM,,,,,32.3 µM,,,,,49.4 µM,,
COc1ccc(C(C#N)NNc2nc(C)cc(=O)[nH]2)cc1OC (stereo unspecified),> 100 µM,,> 100 µM,> 100 µM,> 100 µM,> 100 µM,> 100 µM,,,,,> 100 µM,,,,,> 100 µM,,
COc1c(N2CCN(CN3C(=O)C(=Nc4ccc(S(=O)(=O)Nc5ncccn5)cc4)c4ccccc43)C(C)C2)c(F)cc2c(=O)c(C(=O)O)cn(C3CC3)c12 (stereo unspecified),> 50 µM,,> 50 µM,,,> 50 µM,> 50 µM,44.4 µM,,20.7 µM,> 50 µM,> 50 µM,,> 50 µM,> 50 µM,17 µM,> 50 µM,28.7 µM,40.1 µM
CCCCCCCCCCCC[n+]1ccc(CCCCCCCCC)cc1,,,,2.9 µM,,,2.59 µM,,,,0.362 µM,1.83 µM,1.41 µM,,,,,,1.27 µM
CCCCCCCCCCCCCCCCCCCCCC(=O)Nc1ccn(C2OC(CO)C(O)C2O)c(=O)n1 (stereo unspecified),> 40.7 µM,> 100 µM,> 100 µM,> 57.6 µM,> 100 µM,> 100 µM,> 100 µM,,,,,> 100 µM,,,,,> 37.1 µM,,
COc1cc([C@@H]2c3cc4c(cc3[C@@H](NC(=O)c3ccccc3)C3COC(=O)[C@@H]32)OCO4)cc(OC)c1O (stereo partly specified),> 100 µM,35.4 µM,> 100 µM,13 µM,26.6 µM,21.8 µM,23.5 µM,,,,,9.44 µM,,,,,9.18 µM,,
COC(=O)C1C2C=CC(C2)N1[C@@H](C)c1ccccc1 (stereo partly specified),> 100 µM,> 100 µM,> 100 µM,> 100 µM,> 100 µM,> 100 µM,> 100 µM,,,,,> 100 µM,,,,,,,
O=C1CC[C@@H](S(=O)(=O)c2ccccc2)[C@@H](/C=C/c2ccccc2)O1,> 100 µM,> 100 µM,> 100 µM,> 100 µM,> 100 µM,> 100 µM,> 100 µM,,,,,> 100 µM,,,,,> 100 µM,,
COc1ccc(C2S/C(=C\c3ccc(O)cc3)C(=O)N2NC(=O)Cc2ccccc2)cc1 (stereo unspecified),> 100 µM,,> 100 µM,> 100 µM,> 100 µM,> 100 µM,> 100 µM,,,,,> 100 µM,,,,,> 100 µM,,
CCCCCCCCCCCCCCCC(=O)OCC1OC(n2c(O)c(N=NC(N)=S)c3ccc([N+](=O)[O-])cc32)C(OC(C)=O)C1OC(C)=O (stereo unspecified),> 100 µM,> 100 µM,> 100 µM,> 100 µM,> 100 µM,> 100 µM,,,,,,> 100 µM,,,,,> 100 µM,,
CC(C)CC1=[N+]=C(NC#N)N=C(CCC(=O)Nc2ccccc2[N+](=O)[O-])C1,> 100 µM,> 100 µM,> 100 µM,> 100 µM,> 100 µM,> 100 µM,> 100 µM,,,,,> 100 µM,,,,,> 100 µM,,
CC(=O)n1c2ccccc2c2nc3nc(Oc4ccc(C)cc4)c4ccccc4c3cc21,> 100 µM,> 100 µM,> 100 µM,> 100 µM,> 100 µM,> 100 µM,> 100 µM,,,,,,,,,,> 100 µM,,
